Series [1] relates to Botrytis cinerea. Kind of series: Fungicidal activity against benzimidazole-resistant Botryotinia fuckeliana at 25 ppm after 48 hr by poisoned food technique. The class given is functional.
Series [2] relates to Botrytis cinerea. Kind of series: Fungicidal activity against benzimidazole-resistant Botryotinia fuckeliana at 200 ppm after 48 hr by poisoned food technique. The class given is functional.
The subject of series [3] is Botrytis cinerea. Kind of series: Fungicidal activity against benzimidazole-resistant Botryotinia fuckeliana infected kidney bean leaf at 100 ppm after 7 days in greenhouse conditions by detached leaf test. The class given is functional.
Another series relates to Phaseolus vulgaris. Kind of series: Phytotoxicity against Phaseolus vulgaris (kidney bean) assessed as necrosis of leaf at 100 ppm after 7 days in greenhouse conditions. The class given is organism-based. As to conditions: in vivo, 168 h.
Series [4] deals with Botrytis cinerea. Kind of series: Fungicidal activity against benzimidazole-resistant Botryotinia fuckeliana at 6.2 ppm after 48 hr by poisoned food technique. The class given is functional.
The test system of series [5] is Botrytis cinerea. Kind of series: Fungicidal activity against benzimidazole-resistant Botryotinia fuckeliana after 48 hr by poisoned food technique. The class given is functional, organism-based. As to conditions: Botrytis cinerea, 48 h; read-out: pEC50 (converted).
Series [6] can be described thus: 1-octanol/water distribution coefficient, log P of the compound. The class given is physicochemical.

SMILES strings stand for the structures.

Turning to `CCO/N=C/Nc1c(Cl)cccc1Cl`, the Activity in the series on Botrytis cinerea [1] was below 25%; with Botrytis cinerea [2], 90%; in the series with Botrytis cinerea [3] it was below 25%; in the series with Phaseolus vulgaris, above 31%; in the series on Botrytis cinerea [4], below 25%.
In the case of `CCO/N=C/Nc1cc(C)c(OCC)c(OCC)c1` [N-(3,4-DIETHOXY-5-METHYLPHENYL)-N'-ETHOXYFORMIMIDAMIDE], the Activity in the series with Botrytis cinerea [1] is reported as 100%; in the series on Botrytis cinerea [2], 100%; with Botrytis cinerea [3], 70%; in the series with Phaseolus vulgaris, “Non-toxic”; in the series with Botrytis cinerea [4], 100%.
For orientation: logP means the decadic logarithm of the partition coefficient of the neutral form, usually between octanol and water. The low end stands for lower lipophilicity, the high end for higher lipophilicity. Consider `CCO/N=C/Nc1cc(Cl)c([S+]([O-])CC)c(Cl)c1` (stereo unspecified), for which, in the series with Botrytis cinerea [5], the EC50 is 162000 nM. In addition, the logP in series [6] amounted to 2.9. Moreover, the Activity entry in the series with Phaseolus vulgaris was “Non-toxic”.
In the case of `CCO/N=C/Nc1cc(Cl)c(C)c(Cl)c1` [N-(3,5-DICHLORO-4-METHYLPHENYL)-N'-ETHOXYFORMIMIDAMIDE], the Activity in the series on Botrytis cinerea [1] was below 25%; with Botrytis cinerea [2], below 25%; in the series on Botrytis cinerea [3], below 25%; with Phaseolus vulgaris, “Non-toxic”; with Botrytis cinerea [4], below 25%.
For `CCO/N=C/Nc1cc(Cl)c(OCOC)c(Cl)c1`, the EC50 in the series with Botrytis cinerea [5] is 174 nM. Moreover, the logP in series [6] turned out to be 3.7. Also, the Activity entry in the series on Phaseolus vulgaris is listed as “Non-toxic”.
As to `C#CCc1c(Cl)cc(N/C=N/OCOC)cc1Cl`, in the series on Botrytis cinerea [5], the EC50 was 33.1 nM. The compound further displayed a log partition coefficient (logP) in series [6] of 3.2. Besides, in the series on Phaseolus vulgaris, the Activity result is given as “Non-toxic”.
On to `C#CCc1c(Cl)cc(N/C=N/O)cc1Cl`, for which the EC50 in the series on Botrytis cinerea [5] is 77.6 nM. The compound further displayed a logP in series [6] of 2.8. Moreover, the Activity result in the series on Phaseolus vulgaris is “Non-toxic”.
As for `CCO/N=C/Nc1cc(Cl)c(F)c(Cl)c1`, the EC50 in the series with Botrytis cinerea [5] was 794 nM. In series [6], this compound yielded a logP of 4. Besides, the Activity result with Phaseolus vulgaris is “<= 10%”.
Turning to `CCO/N=C/Nc1cc(Cl)c(OC(C)C)c(Cl)c1`, the EC50 with Botrytis cinerea [5] is 6920 nM. In addition, the logP in series [6] is 4.4. Besides, the Activity entry with Phaseolus vulgaris is reported as “<= 10%”.
The corresponding values for `C#CCc1c(Cl)cc(N/C=N/Oc2ccc(C)cc2)cc1Cl` are 851 nM, 4.8 and “Non-toxic”.
As to `C#CCc1c(Cl)cc(N/C=N/OCCCl)cc1Cl`, in the series on Botrytis cinerea [5], the EC50 was 30.9 nM. In addition, in series [6], the logP is 3.7. In addition, the Activity entry in the series on Phaseolus vulgaris is listed as “Non-toxic”.
`CCO/N=C/Nc1cc(Cl)c(OCC#N)c(Cl)c1`: the EC50 with Botrytis cinerea [5] is 174 nM. The compound also yielded a logP in series [6] of 3.1. The Activity entry in the series with Phaseolus vulgaris is reported as “Non-toxic”.
Regarding `C=CCOc1c(Cl)cc(N/C=N/OCC)cc1Cl`, the EC50 in the series on Botrytis cinerea [5] is 34.7 nM. In series [6], this compound yielded a logP of 4.3. Further, in the series on Phaseolus vulgaris, the Activity entry is “Non-toxic”.
In the case of `C#CCc1c(Cl)cc(N/C=N/OCC(=O)OCC)cc1Cl`, the EC50 in the series on Botrytis cinerea [5] was 1450 nM. In series [6], the logP came out at 3.6. For the same compound, the Activity result in the series with Phaseolus vulgaris is “Non-toxic”.
Take `C#CCc1c(Cl)cc(N/C=N/OCCCC)cc1Cl`: the EC50 with Botrytis cinerea [5] was 316 nM. This compound displayed a lipophilicity (logP) in series [6] of 4.4. Besides, the Activity entry in the series with Phaseolus vulgaris is “Non-toxic”.
For the compound `C#CCc1c(Cl)cc(N/C=N/OCCC)cc1Cl`, the EC50 in the series with Botrytis cinerea [5] was 33.1 nM. The compound also displayed a logP in series [6] of 4. The Activity result in the series with Phaseolus vulgaris was “Non-toxic”.
On to `C#CCc1c(Cl)cc(N/C=N/OCc2ccccc2)cc1Cl`, for which the EC50 in the series with Botrytis cinerea [5] is 2880 nM. The same compound returned a logP in series [6] of 4.2. Also, the Activity entry in the series with Phaseolus vulgaris is reported as “Non-toxic”.
Turning to `CCO/N=C/Nc1cc(Cl)c(OCC(C)C)c(Cl)c1`, the EC50 with Botrytis cinerea [5] was 16200 nM. This compound also gave a logP in series [6] of 5. Moreover, the Activity entry in the series with Phaseolus vulgaris is on record as “<= 10%”.
`CCO/N=C/Nc1cc(Cl)c(CC)c(Cl)c1`: in the series on Botrytis cinerea [5], the EC50 was 389 nM. In series [6], the logP was 4.8. Moreover, the Activity result in the series with Phaseolus vulgaris is reported as “Non-toxic”.
The corresponding values for `C#CCc1c(Cl)cc(N/C=N/OCCOCC)cc1Cl` are 60.3 nM, 3.7 and “Non-toxic”.
The corresponding values for `C#CCc1c(Cl)cc(N/C=N/OC/C=C/Cl)cc1Cl` are 302 nM, 3.9 and “Non-toxic”.
As to `CCO/N=C/Nc1cc(Cl)c(S(=O)(=O)CC)c(Cl)c1`, in the series with Botrytis cinerea [5], the EC50 was 30900 nM. Also, in series [6], the logP came to 2.8. In addition, the Activity entry in the series with Phaseolus vulgaris was “<= 10%”.
Consider `C#CCc1c(Cl)cc(N/C=N/OCOCC)cc1Cl`, for which the EC50 in the series on Botrytis cinerea [5] is 63.1 nM. Besides, the logP in series [6] stood at 3.5. In addition, the Activity result in the series with Phaseolus vulgaris is “Non-toxic”.
Take `CCO/N=C/Nc1cc(Cl)c(OCCCl)c(Cl)c1`: the EC50 with Botrytis cinerea [5] is 32.4 nM. In series [6], this compound came in with a logP of 4. For the same compound, in the series on Phaseolus vulgaris, the Activity result was “Non-toxic”.
For the compound `C#CCc1c(Cl)cc(N/C=N/OC(C)CC)cc1Cl` (stereo unspecified), the EC50 with Botrytis cinerea [5] is 158 nM. This compound also registered a logP in series [6] of 4.2. Besides, in the series with Phaseolus vulgaris, the Activity result is “Non-toxic”.
In the case of `CCCOc1c(Cl)cc(N/C=N/OCC)cc1Cl`, the EC50 with Botrytis cinerea [5] was 174 nM. The logP in series [6] stood at 4.6. Further, the Activity result with Phaseolus vulgaris is on record as “Non-toxic”.
Regarding `C#CCOc1c(Cl)cc(NC=NOCC)cc1Cl`, the EC50 in the series on Botrytis cinerea [5] was 17.4 nM. In addition, in series [6], the logP came out at 3.6. For the same compound, the Activity result with Phaseolus vulgaris is reported as “Non-toxic”.
`C#CCc1c(Cl)cc(N/C=N/OCSC)cc1Cl`: in the series on Botrytis cinerea [5], the EC50 is 31.6 nM. In series [6], this compound showed a logP of 3.6. Moreover, the Activity result in the series with Phaseolus vulgaris is listed as “Non-toxic”.
On to `CCO/N=C/Nc1cc(Cl)c(SCC)c(Cl)c1`, for which the EC50 with Botrytis cinerea [5] was 170 nM. For the same compound, the logP in series [6] was found to be 4.6. Further, the Activity entry in the series with Phaseolus vulgaris was “Non-toxic”.
The corresponding values for `CC#CCOc1c(Cl)cc(N/C=N/OCC)cc1Cl` are 166 nM, 4 and “Non-toxic”.
On to `C#CCc1c(Cl)cc(N/C=N/OCC#N)cc1Cl`, for which the EC50 in the series on Botrytis cinerea [5] was 33.9 nM. In series [6], this compound gave a logP of 3. Further, in the series on Phaseolus vulgaris, the Activity entry is “Non-toxic”.
With `C#CCc1c(Cl)cc(N/C=N/Oc2ccccc2)cc1Cl`, the EC50 with Botrytis cinerea [5] is 295 nM. In addition, the logP in series [6] is 4.4. In addition, the Activity result in the series on Phaseolus vulgaris is given as “Non-toxic”.
On to `CCO/N=C/Nc1cc(Cl)c(OC)c(Cl)c1`, for which, in the series with Botrytis cinerea [5], the EC50 is 191 nM. In series [6], the logP turned out to be 3.7. In addition, the Activity entry in the series with Phaseolus vulgaris is on record as “Non-toxic”.
The corresponding values for `CCO/N=C/Nc1cc(Cl)c(SSCC)c(Cl)c1` are 617 nM, 5 and “Non-toxic”.
Consider `C#CCc1c(Cl)cc(N/C=N/OCC=C)cc1Cl`, for which, in the series with Botrytis cinerea [5], the EC50 is 67.6 nM. Besides, the logP in series [6] is 3.7. Moreover, the Activity result in the series on Phaseolus vulgaris was “Non-toxic”.
In the case of `C#CCc1c(Cl)cc(N/C=N/OC(C)C)cc1Cl`, the EC50 in the series with Botrytis cinerea [5] is 33.1 nM. In addition, the logP in series [6] came out at 3.9. For the same compound, in the series with Phaseolus vulgaris, the Activity result was “Non-toxic”.
As to `C#CCc1c(Cl)cc(N/C=N/OC/C=C\Cl)cc1Cl`, the EC50 in the series with Botrytis cinerea [5] was 60.3 nM. In addition, the logP in series [6] was found to be 3.9. The Activity entry in the series with Phaseolus vulgaris is “Non-toxic”.
In the case of `CCCCc1c(Cl)cc(N/C=N/OCC)cc1Cl`, the EC50 in the series with Botrytis cinerea [5] is 1740 nM. Moreover, the logP in series [6] is 5.6. Besides, in the series with Phaseolus vulgaris, the Activity entry is “Non-toxic”.
In the case of `CCO/N=C/Nc1cc(Cl)c(O)c(Cl)c1`, the EC50 in the series on Botrytis cinerea [5] was 794 nM. Moreover, in series [6], the logP came to 2.8. In the series on Phaseolus vulgaris, the Activity entry is “Non-toxic”.
In the case of `C#CCO/N=C/Nc1cc(Cl)c(CC#C)c(Cl)c1`, the EC50 in the series on Botrytis cinerea [5] was 33.9 nM. The same compound showed a logP in series [6] of 3.3. Also, in the series on Phaseolus vulgaris, the Activity entry was “Non-toxic”.

Source of the values: ChEMBL document CHEMBL3045758, “Quantitative Structure-Activity Relationships of Fungicidal N-Phenylformamidoximes” (J Pestic Sci, 1992).
